“Also recorded” adds a separate entry of the source. Where two headings read alike, the source gives them in different places.
How the values were obtained:
mice [1] = experiment: Acute physical dependence assay: naloxone-precipitated withdrawal jumping; format: in vivo, mouse; conditions: for effect on naloxone-precipitated withdrawal jumping: co-treatment 4 hours with 100 mg/kg morphine s.c. plus low dose antagonist
mice [2] = experiment: Warm-water (55° C.) tail-flick assay, antinociception; format: in vivo, mouse
DRG neurons = format: cell-based, mouse
[3] = system: excitatory opioid receptors on DRG neurons; format: cell-based, mouse
human volunteers = conditions: yohimbine 0.1 mg/kg IV; 100 mg tramadol orally; cited from earlier work
[4] = system: dorsal root ganglion (DRG) neurons; format: cell-based, mouse
mice [5] = conditions: at 30 minutes; n=10
mice [6] = conditions: morphine 20-50 mg/kg s.c. twice daily 4 days alone or + naltrexone 10 μg/kg s.c.; n=30

O=C1CC[C@@]2(O)[C@H]3Cc4ccc(O)c5c4[C@@]2(CCN3CC2CC2)[C@H]1O5 [naltrexone]
effect on naloxone-precipitated withdrawal jumping (mice [1]): attenuates naloxone-precipitated withdrawal-jumping | analgesic effects of antagonist alone (mice [2]; 10 ng/kg i.p.): did not elicit analgesic effects | analgesic effects of antagonist alone (mice [2]; 0.1 μg/kg): did not elicit analgesic effects | excitatory APD prolongation (supersensitivity) after chronic co-treatment (DRG neurons): did not evoke the usual excitatory APD prolongation | tolerance to inhibitory effects of opioids after chronic co-treatment (DRG neurons): no evidence of tolerance | blockade of excitatory APD prolongation by bimodally-acting opioid agonists [3]: remarkably effective in blocking excitatory APD-prolonging effects | effect on morphine's APD effects [3]: blocks both inhibitory as well as excitatory effects of morphine | selective antagonism of excitatory APD-prolonging effects at excitatory opioid receptors [3]: act selectively as antagonists; also recorded: selectively blocked

C=C1CC[C@@]2(O)[C@H]3Cc4ccc(O)c5c4[C@@]2(CCN3CC2CC2)[C@H]1O5 [nalmefene]
attenuation of morphine dependence liability compared with naltrexone (mice [1]; 1 μg/kg nalmefene, n=10): may even be more effective than naltrexone | effect on naloxone-precipitated withdrawal jumping (mice [1]): attenuates naloxone-precipitated withdrawal-jumping | enhancement of morphine antinociceptive potency compared with naltrexone (mice [2]; 1 ng/kg nalmefene): as effective as 10 ng/kg naltrexone | effect on morphine's antinociceptive potency (mice [2]; 3 mg/kg morphine + 1-100 ng/kg nalmefene i.p., 10 mice): enhances morphine's antinociceptive potency

COC(=O)[C@@H]1[C@H]2C[C@H]3c4[nH]c5ccccc5c4CCN3C[C@@H]2CC[C@@H]1O [yohimbine]
reduction of tramadol-induced analgesia (human volunteers): ≥ 89%

CN1CC[C@]23c4c5ccc(O)c4O[C@H]2[C@@H](O)C=C[C@H]3[C@H]1C5 [morphine]
mice showing naloxone-precipitated jumping (mice [1]; 100 mg/kg morphine s.c. alone or + naltrexone 10 μg/kg, naloxone 10 mg/kg i.p. 3-4 h later, n=30): About 67% | peak tail-flick latencies (mice [2]; 100 mg/kg morphine alone or + 10 μg/kg naltrexone, cutoff value): 10 s | APD during application [4]: prolonged | alteration of the APD of DRG neurons [4]: prolong the APD | antinociception after acute 1 mg/kg morphine, 1 day after drug withdrawal (mice [5]): 3%±2% | mice showing naloxone-precipitated jumping (mice [6]): About 60%

From patent US6765010B2, “Compositions and methods for enhancing analgesic potency of tramadol and attenuating its adverse side effects” (Pain Therapeutics, Inc., priority 1999, dated 2004)
